Results from paper PMC9230136 (Pharmaceutics, 2022).
Read-outs that look alike come from different tables or passages of the source.

Assays:
tubulin = details: cited from earlier work
A549 [1] = details: cited from earlier work
HeLa [2] = details: cited from earlier work
Bovine brain tubulin [3] = test: Inhibition of tubulin polymerization; type: biochemical; details: for IC50: tubulin at 10 μM, read-out: Tubulin Assembly IC50 ± SD
Description: (§1) Bovine brain tubulin was purified as described previously. To evaluate the effects of the compounds on tubulin assembly in vitro [35], varying concentrations were preincubated with 10 μM tubulin in 0.8 M monosodium glutamate (pH 6.6) at 30 °C and the reaction mixtures then cooled to 0 °C. After addition of GTP, the mixtures were transferred to 0 °C cuvettes in Beckman Coulter (Brea, CA, USA) DU-7400/DU-7500 recording spectrophotometers equipped with electronic temperature controllers and warmed to 30 °C, and the assembly of tubulin was observed turbidimetrically. […] Inhibition of colchicine binding to tubulin was measured as described before, except that the reaction mixtures contained 0.5 μM tubulin and 5 μM each of [^3H]colchicine and test compound. Only one DEAE-cellulose filter was used per sample, and filtration was by gravity.

Bovine brain tubulin [4] = test: Inhibition of [3H]colchicine binding to tubulin; details: tubulin 0.5 µM, [3H]colchicine 5 µM, compound 5 µM
Description: as §1

[5] = system: A549, MDA-MB-231, HeLa, HT-29 and Jurkat cancer cell lines; test: Antiproliferative activity over the panel of cancer cell lines; type: cell-based, human; details: for fold reduction in potency (vs 7y): MDA-MB-231 and HT-29 cells
Description: (§2) Colon adenocarcinoma (HT-29) and T-cell leukemia (Jurkat) cells were grown in RPMI-1640 medium (Gibco, Milano, Italy). Promyelocytic leukemia cells (HL-60), non-small cell lung carcinoma (A549), cervix carcinoma (HeLa) and breast adenocarcinoma (MDA-MB-231) cells were grown in DMEM medium (Gibco, Milano, Italy). Both media were supplemented with 115 units/mL of penicillin G (Gibco, Milano, Italy), 115 μg/mL of streptomycin (Invitrogen, Milano, Italy) and 10% fetal bovine serum (Invitrogen, Milano, Italy). All the cell lines used were purchased from the American Type Culture Collection (ATCC, Manassas, VA, USA). Stock solutions (10 mM) of the compounds were obtained by dissolving them in DMSO.
(§3) The cells were seeded in 96-well plates at the appropriate density for each cell line. After 24 h, the cells were treated by performing serial 5-fold dilutions of the tested compounds starting from a concentration of 10 μM. All experimental conditions were tested in triplicate for statistical analysis. The plates were incubated for 72 h at 37 °C in a humidified 5% CO2 atmosphere. At the end of the incubation period, 10 μL of 100 μg/mL resazurin solution was added to each well; then, the plate was re-incubated for 3–4 h. The fluorescence of the wells in each plate was monitored using a Spark 10 M spectrophotometer (Tecan Group Ltd., Mannedorf, Switzerland) with a 535 nm excitation wavelength and a 600 nm emission wavelength.

HT-29 = test: Antiproliferative assay (resazurin, 72 h); type: cell-based, human; details: mean ± SE, 72 h
Description: as §2, §3

MDA-MB-231 = test: Antiproliferative assay (resazurin, 72 h); type: cell-based, human; details: for IC50: mean ± SE, 72 h
Description: as §2, §3

HeLa [6] = test: Antiproliferative assay (resazurin, 72 h); type: cell-based, human
Description: as §2, §3

Jurkat = test: Antiproliferative assay (resazurin, 72 h); type: cell-based, human; details: for IC50: mean ± SE, 72 h; for fold increase in activity relative to 7ad: Jurkat cells
Description: as §2, §3

A549 [7] = test: Antiproliferative assay (resazurin, 72 h); type: cell-based, human
Description: as §2, §3

[8] = Homo sapiens, all five lines, read-out: IC50 values against all five lines
[9] = Homo sapiens, range over the five tumor lines, read-out: IC50 values, range over the cell lines
[10] = Homo sapiens, MDA-MB-231, Table 1
[11] = Homo sapiens, HeLa, Table 1, mean ± SE
[12] = Homo sapiens, A549, Table 1, mean ± SE
[13] = Homo sapiens, MDA-MB-231, Table 2
[14] = Homo sapiens, HeLa, Table 2, mean ± SE
[15] = Homo sapiens, A549, Table 2, mean ± SE
[16] = mean over the five cancer cell lines, read-out: mean IC50 (antiproliferative activity)
[17] = read-out: IC50 (compared with 8u on A549)

COc1cc(-c2nc3nc(C)c(C(C)=O)c(-c4ccc([N+](=O)[O-])cc4)n3n2)cc(OC)c1OC [Compound 4]
inhibition of tubulin assembly (tubulin; at 10 μM): 40%
IC50 (A549 [1]; read-out: IC50 A549): 1020 nM
IC50 (HeLa [2]): 750 nM

COc1ccc(-c2c(C(C)=O)c(C)nc3nc(-c4cc(OC)c(OC)c(OC)c4)nn23)cc1[N+](=O)[O-] [Compound 5]
IC50 (tubulin; read-out: IC50 antitubulin activity): 9900 nM
IC50 (A549 [1]; read-out: IC50 A549): 16000 nM
IC50 (HeLa [2]): 10000 nM

COc1ccc(-c2nc3nc(C)c(C(C)=O)c(-c4cc(OC)c(OC)c(OC)c4)n3n2)cc1O [Compound 6]
fold more powerful than CA-4, tubulin polymerization (tubulin): 3 fold
IC50 (HeLa [2]): 60 nM

COc1cc(Nc2cc(C)nc3nc(NCc4ccc(Cl)cc4)nn23)cc(OC)c1OC [Compound 7n, N^2-(4-Chlorobenzyl)-5-methyl-N^7-(3,4,5-trimethoxyphenyl)-[1,2,4]triazolo [1,5-a]pyrimidine-2,7-diamine]
IC50 (Bovine brain tubulin [3]): 390 ± 60 nM
Colchicine Binding % Inhibition ± SD (Bovine brain tubulin [4]): 30 ± 0.3%
IC50 [5, 8]: < 1000 nM
IC50 [5, 9]: 31 to 323 nM
fold increase in antiproliferative activity vs 7l ([5]; four of the five cell lines): 17–60 fold
IC50 (HT-29; Homo sapiens, HT-29, Table 1): 54 ± 10 nM
IC50 (MDA-MB-231; [10]): 190 ± 20 nM
fold reduction in activity vs 7l (MDA-MB-231; MDA-MB-231 cells): 3 fold
IC50 (HeLa [6]; [11]): 31 ± 10 nM
IC50 (Jurkat; Homo sapiens, Jurkat, Table 1): 320 ± 19 nM
IC50 (A549 [7]; [12]): 110 ± 22 nM
melting point: 140 to 142 °C

COc1cc(Nc2cc(C)nc3nc(NCc4ccc(C)cc4)nn23)cc(OC)c1OC [Compound 7p, 5-Methyl-N2-(4-methylbenzyl)-N7-(3,4,5-trimethoxyphenyl)-[1,2,4]triazolo [1,5-a]pyrimidine-2,7-diamine]
IC50 (Bovine brain tubulin [3]): 660 ± 100 nM
Colchicine Binding % Inhibition ± SD (Bovine brain tubulin [4]): 27 ± 3%
IC50 [5, 8]: < 1000 nM
IC50 [5, 9]: 60 to 427 nM
fold more potent than 7g ([5]; all cancer cell lines): 2–9 fold
fold less active than 7n ([5]; cell lines other than Jurkat): 2–4 fold
IC50 ([5]; range over the five tumor lines, read-out: IC50 values, range over the cell lines): 60 to 420 nM
IC50 (HT-29; Homo sapiens, HT-29, Table 1): 110 ± 20 nM
IC50 (MDA-MB-231; [10]): 301 ± 40 nM
IC50 (HeLa [6]; [11]): 60 ± 10 nM
IC50 (Jurkat; Homo sapiens, Jurkat, Table 1): 430 ± 1 nM
IC50 (A549 [7]; [12]): 420 ± 70 nM
melting point: 146 to 148 °C

COc1cc(Nc2cc(C)nc3nc(NCc4ccc5c(c4)OCO5)nn23)cc(OC)c1OC [Compound 7y, N^2-(Benzo[d][1,3]dioxol-5-ylmethyl)-5-methyl-N^7-(3,4,5-trimethoxyphenyl)-[1,2,4]triazolo [1,5-a]pyrimidine-2,7-diamine]
fold less active than CA-4, tubulin polymerization (Bovine brain tubulin [3]): 1.5 fold
IC50 (Bovine brain tubulin [3]): 1000 ± 200 nM
Colchicine Binding % Inhibition ± SD (Bovine brain tubulin [4]): 19 ± 05%
IC50 [5, 8]: < 1000 nM
IC50 [5, 9]: 110 to 780 nM
fold increase in activity vs 7i ([5]; all five cell lines): 6–28 fold
IC50 (HT-29; Homo sapiens, HT-29, Table 1): 170 ± 20 nM
IC50 (MDA-MB-231; [10]): 300 ± 20 nM
IC50 (HeLa [6]; [11]): 110 ± 10 nM
IC50 (Jurkat; Homo sapiens, Jurkat, Table 1): 780 ± 90 nM
IC50 (A549 [7]; [12]): 660 ± 30 nM
melting point: 190 to 192 °C

Cc1cc(Nc2ccc(F)c(Cl)c2)n2nc(NCc3ccc4c(c3)OCO4)nc2n1 [Compound 8f, N^2-(Benzo[d][1,3]dioxol-5-ylmethyl)-N^7-(3-chloro-4-fluorophenyl)-5-methyl-[1,2,4]triazolo [1,5-a]pyrimidine-2,7-diamine]
fold reduction in potency (vs 7y) [5]: 2–3 fold
IC50 (HT-29; Homo sapiens, HT-29, Table 2): 300 ± 30 nM
IC50 (MDA-MB-231; [13]): 700 ± 160 nM
IC50 (HeLa [6]; [14]): 160 ± 90 nM
IC50 (Jurkat; Homo sapiens, Jurkat, Table 2): 980 ± 60 nM
fold increase in activity relative to 7ad (Jurkat): 3-4 fold
IC50 (A549 [7]; [15]): 440 ± 50 nM
melting point: 186 to 188 °C

Cc1cc(Nc2ccc(F)cc2)n2nc(NCc3ccc4c(c3)OCO4)nc2n1 [Compound 8g, N^2-(Benzo[d][1,3]dioxol-5-ylmethyl)-N^7-(4-fluorophenyl)-5-methyl-[1,2,4]triazolo [1,5-a]pyrimidine-2,7-diamine]
fold reduction in potency (vs 7y) [5]: 2–3 fold
IC50 (HT-29; Homo sapiens, HT-29, Table 2): 260 ± 100 nM
IC50 (MDA-MB-231; [13]): 600 ± 210 nM
IC50 (HeLa [6]; [14]): 160 ± 70 nM
IC50 (Jurkat; Homo sapiens, Jurkat, Table 2): 200 ± 50 nM
fold increase in activity relative to 7ad (Jurkat): 3-4 fold
IC50 (A549 [7]; [15]): 650 ± 280 nM
melting point: 168 to 170 °C

Cc1cc(Nc2ccc(Cl)cc2)n2nc(NCc3ccc4c(c3)OCO4)nc2n1 [Compound 8i, N^2-(Benzo[d][1,3]dioxol-5-ylmethyl)-N^7-(4-chlorophenyl)-5-methyl-[1,2,4]triazolo [1,5-a]pyrimidine-2,7-diamine]
fold reduction in potency (vs 7y) [5]: 2–3 fold
IC50 (HT-29; Homo sapiens, HT-29, Table 2): 600 ± 160 nM
IC50 (MDA-MB-231; [13]): 940 ± 340 nM
IC50 (HeLa [6]; [14]): 190 ± 120 nM
IC50 (Jurkat; Homo sapiens, Jurkat, Table 2): 280 ± 50 nM
fold increase in activity relative to 7ad (Jurkat): 3-4 fold
IC50 (A549 [7]; [15]): 810 ± 220 nM
melting point: 156 to 158 °C

Cc1cc(Nc2ccc(Br)cc2)n2nc(NCc3ccc4c(c3)OCO4)nc2n1 [Compound 8l, N^2-(Benzo[d][1,3]dioxol-5-ylmethyl)-N^7-(4-bromophenyl)-5-methyl-[1,2,4]triazolo [1,5-a]pyrimidine-2,7-diamine]
fold reduction in potency (vs 7y) [5]: 2–3 fold
IC50 (HT-29; Homo sapiens, HT-29, Table 2): 420 ± 20 nM
IC50 (MDA-MB-231; [13]): 1270 ± 450 nM
IC50 (HeLa [6]; [14]): 220 ± 40 nM
IC50 (Jurkat; Homo sapiens, Jurkat, Table 2): 260 ± 50 nM
fold increase in activity relative to 7ad (Jurkat): 3-4 fold
IC50 (A549 [7]; [15]): 430 ± 180 nM
melting point: 182 to 184 °C

Cc1cc(Nc2ccc(Cl)cc2)n2nc(NCCCc3ccccc3)nc2n1 [Compound 8s]
fold more potent than CA-4, tubulin polymerization (Bovine brain tubulin [3]): about 2 fold
IC50 (Bovine brain tubulin [3]): 390 ± 10 nM
Colchicine Binding % Inhibition ± SD (Bovine brain tubulin [4]): 88 ± 3%
IC50 [5, 16]: 91 nM
IC50 (HT-29; Table 2): 53 ± 1 nM
IC50 (MDA-MB-231; Table 2): 200 ± 70 nM
IC50 (HeLa [6]; Table 2, mean ± SE): 48 ± 1 nM
IC50 (Jurkat; Table 2): 83 ± 20 nM
IC50 (A549 [7]; Table 2, mean ± SE): 70 ± 10 nM

Cc1cc(Nc2ccc(Br)cc2)n2nc(NCCCc3ccccc3)nc2n1 [Compound 8u]
fold more potent than CA-4, tubulin polymerization (Bovine brain tubulin [3]): about 2 fold
IC50 (Bovine brain tubulin [3]): 380 ± 20 nM
Colchicine Binding % Inhibition ± SD (Bovine brain tubulin [4]): 84 ± 2%
IC50 [5, 16]: 83 nM
IC50 (HT-29; Table 2): 83 ± 20 nM
IC50 (MDA-MB-231; Table 2): 120 ± 40 nM
IC50 (HeLa [6]; Table 2, mean ± SE): 22 ± 10 nM
IC50 (Jurkat; Table 2): 150 ± 14 nM
IC50 (A549 [7]; Table 2, mean ± SE): 48 ± 10 nM

C#Cc1cccc(Nc2cc(C)nc3nc(NCCCc4ccccc4)nn23)c1 [Compound 8v]
IC50 (Bovine brain tubulin [3]): 430 ± 50 nM
Colchicine Binding % Inhibition ± SD (Bovine brain tubulin [4]): 70 ± 3%
IC50 (HT-29; Table 2): 83 ± 20 nM
IC50 (MDA-MB-231; Table 2): 350 ± 10 nM
IC50 (HeLa [6]; Table 2, mean ± SE): 69 ± 10 nM
IC50 (Jurkat; Table 2): 160 ± 10 nM
IC50 (A549 [7]; Table 2, mean ± SE): 110 ± 30 nM

CO[C@H]1C(=O)[C@]2(C)[C@@H](OC)C[C@H]3OC[C@@]3(OC(C)=O)[C@H]2[C@H](OC(=O)c2ccccc2)[C@]2(O)C[C@H](OC(=O)[C@H](O)[C@@H](NC(=O)OC(C)(C)C)c3ccccc3)C(C)=C1C2(C)C [cabazitaxel]
IC50 (A549 [1]; [17]): 15 nM

CC(=O)O[C@@]12CO[C@@H]1C[C@H](O)[C@@]1(C)C(=O)[C@H](O)C3=C(C)[C@@H](OC(=O)[C@H](O)[C@@H](NC(=O)OC(C)(C)C)c4ccccc4)C[C@@](O)([C@@H](OC(=O)c4ccccc4)[C@H]21)C3(C)C [docetaxel]
IC50 (A549 [1]; [17]): 19.5 nM

COc1cccc2c1C(=O)c1c(O)c3c(c(O)c1C2=O)C[C@@](O)(C(=O)CO)C[C@@H]3O[C@H]1C[C@H](N)[C@H](O)[C@H](C)O1 [doxorubicin]
IC50 (A549 [1]; [17]): 11600 nM

CC(=O)O[C@H]1C(=O)[C@@]2(C)[C@H]([C@H](OC(=O)c3ccccc3)[C@]3(O)C[C@H](OC(=O)[C@H](O)[C@@H](NC(=O)c4ccccc4)c4ccccc4)C(C)=C1C3(C)C)[C@]1(OC(C)=O)CO[C@@H]1C[C@@H]2O [paclitaxel]
IC50 (A549 [1]; [17]): 3.5 nM
